The source made the active and inactive calls.
Legend:
Albumin = Albumin (Bos taurus, UniProt P02769); assay: Counterscreen for inhibitors of T-cell receptor (TCR)-CD3 interaction: Fluorescence-based biochemical high throughput dose response assay to identify inhibitors of T-cell receptor (TCR)-CD3 interaction using a TAMRA-labeled BSA probe.; format: functional
HEK293 [1] = assay: cells; settings: Homo sapiens
[2] = HEK293T cell cytotoxicity, dose response, cytotoxicity control for HIV Vif inhibitor project, cherry-picks (AID 652208); format: functional, cell-based
[3] = growth suppression of beta-catenin-knockout colon cells, dose response, cell-based, HCT116, human colon tumor (AID 1045); format: functional;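 also: HCT116 colon tumor cells with beta catenin knocked out; cells exposed to compound for 60 hours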
[4] = molecular target: Induced myeloid leukemia cell differentiation protein Mcl-1 (Homo sapiens, UniProt Q07820); format: functional
HEK293 [5] = assay: cells; settings: Homo sapiens; remark: listed apart in the source
Protein RecA = molecular target: T1, Protein RecA (Mycobacterium tuberculosis, UniProt P9WHJ3); assay: Fluorescence Cell-Free Homogeneous Dose Retest to Identify Inhibitors of RecA-Intein Splicing Activity. [Related pubchem assays (depositor defined):AID2097, AID2223, AID489010, AID492950]; format: functional
T1 sequence (P9WHJ3 whole entry): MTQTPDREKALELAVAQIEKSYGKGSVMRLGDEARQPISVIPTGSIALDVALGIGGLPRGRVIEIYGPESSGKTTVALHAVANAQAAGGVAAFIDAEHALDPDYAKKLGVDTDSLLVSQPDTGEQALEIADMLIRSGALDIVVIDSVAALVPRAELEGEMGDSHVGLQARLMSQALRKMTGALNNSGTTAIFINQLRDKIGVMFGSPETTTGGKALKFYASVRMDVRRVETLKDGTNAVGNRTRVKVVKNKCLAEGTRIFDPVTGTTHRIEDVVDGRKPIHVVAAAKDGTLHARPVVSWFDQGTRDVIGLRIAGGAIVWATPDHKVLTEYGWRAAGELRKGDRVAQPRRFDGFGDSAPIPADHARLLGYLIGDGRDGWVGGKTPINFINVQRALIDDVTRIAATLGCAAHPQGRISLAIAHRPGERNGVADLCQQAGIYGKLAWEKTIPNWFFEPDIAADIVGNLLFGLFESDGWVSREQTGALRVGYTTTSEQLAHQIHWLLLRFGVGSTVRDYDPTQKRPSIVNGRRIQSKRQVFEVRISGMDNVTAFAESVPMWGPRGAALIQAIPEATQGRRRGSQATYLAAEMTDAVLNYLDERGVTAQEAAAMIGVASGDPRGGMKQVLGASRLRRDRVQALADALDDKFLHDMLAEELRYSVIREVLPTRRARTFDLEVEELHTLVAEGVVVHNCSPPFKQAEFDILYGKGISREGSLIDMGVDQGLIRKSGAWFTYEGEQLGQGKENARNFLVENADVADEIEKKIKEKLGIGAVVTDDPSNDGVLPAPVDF

[6] = growth suppression of PTEN-null colon cells, dose response, cell-based, HCT116 PTEN knockout (AID 1047); format: functional;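 also: HCT116 colon tumor cells with PTEN knocked out; cells exposed to compound for 60 hours before readout; potency for loss of cell viability measured by luminescence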
[7] = molecular target: T2, Replicative DNA helicase DnaB (Mycobacterium tuberculosis, UniProt P9WMR3); assay: DnaB intein splicing inhibitors, dose response, biochemical, cell-free fluorescence (AID 449749); format: functional
T2 sequence (P9WMR3 whole entry): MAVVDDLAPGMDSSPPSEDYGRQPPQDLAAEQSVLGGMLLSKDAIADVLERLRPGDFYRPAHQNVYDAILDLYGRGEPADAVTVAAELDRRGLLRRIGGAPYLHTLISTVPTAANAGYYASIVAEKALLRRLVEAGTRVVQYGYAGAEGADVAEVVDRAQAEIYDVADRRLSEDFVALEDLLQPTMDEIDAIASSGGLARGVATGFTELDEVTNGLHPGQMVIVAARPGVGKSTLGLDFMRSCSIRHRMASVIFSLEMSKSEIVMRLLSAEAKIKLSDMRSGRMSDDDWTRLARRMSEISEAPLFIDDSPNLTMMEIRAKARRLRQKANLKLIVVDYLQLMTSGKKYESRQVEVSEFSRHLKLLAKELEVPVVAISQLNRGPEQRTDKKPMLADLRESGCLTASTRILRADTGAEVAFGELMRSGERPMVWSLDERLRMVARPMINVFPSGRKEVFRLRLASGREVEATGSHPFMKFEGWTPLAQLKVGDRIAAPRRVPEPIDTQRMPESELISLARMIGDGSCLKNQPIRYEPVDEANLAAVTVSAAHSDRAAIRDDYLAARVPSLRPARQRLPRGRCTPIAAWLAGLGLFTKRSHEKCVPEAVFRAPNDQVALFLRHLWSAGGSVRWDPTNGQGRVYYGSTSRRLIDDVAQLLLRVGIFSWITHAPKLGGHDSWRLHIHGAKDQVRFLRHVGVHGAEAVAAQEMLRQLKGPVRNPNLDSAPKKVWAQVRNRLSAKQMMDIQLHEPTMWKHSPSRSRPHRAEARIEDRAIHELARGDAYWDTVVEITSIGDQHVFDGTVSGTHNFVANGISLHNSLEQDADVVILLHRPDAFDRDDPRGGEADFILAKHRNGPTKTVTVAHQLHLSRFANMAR

[8] = control 3'UTR Renilla luciferase suppression, dose response, counter-screen for Shn3 inhibitor project, cell-based, Clone20-Shn3RL, cherry-picked (AID 624133); format: functional
[9] = test system: Streptococcus sp. 'group A'; assay: growth inhibition of control SK(-) GAS strain, dose response, counter-screen for streptokinase expression inhibitor project, luminescence, kanamycin, BacTiterGlo, confirmation (AID 1900); format: functional, organism-based
[10] = molecular target: Heat shock protein HSP 90-alpha (Homo sapiens, UniProt P07900); format: functional, organism-based
[11] = molecular target: T3, Polyadenylate-binding protein 1 (Homo sapiens, UniProt P11940); assay: PABP1 MLLE–PAM2 interaction inhibitors, dose response, miRNA deadenylation inhibitor project, biochemical, fluorescence polarization, Cy5-PAM2 peptide, secondary (AID 602260); format: functional; settings: read-out: IC50_Mean
[12] = NIH-3T3 fibroblast cytotoxicity, dose response, cytotoxicity control, cell-based, fluorescence, Alamar Blue, secondary assay (AID 2327); format: functional;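 also: NIH-3T3 mouse fibroblasts cultured with fluconazole at 8 µg/mL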
[13] = C. albicans growth with fluconazole, confirmation, fluorescence, retest (AID 2467); format: functional, cell-based
[14] = molecular target: T3, Polyadenylate-binding protein 1; assay: PABP1 MLLE–PAM2 binding inhibitor potency, dose response, biochemical, fluorescence polarization, FITC-PAM2 peptide (AID 602259); format: functional; settings: read-out: IC50_Mean
Streptokinase A = molecular target: T4, Streptokinase A (Streptococcus pyogenes serotype M1, UniProt P10520); assay: S. pyogenes streptokinase expression inhibitors, potency, dose response, plasminogen activation absorbance, OD405 (AID 1914); format: functional, Streptococcus pyogenes M1 GAS;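 also: secreted streptokinase activity via plasminogen activation per viability signal from cell pellet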
T4 sequence (P10520 whole entry): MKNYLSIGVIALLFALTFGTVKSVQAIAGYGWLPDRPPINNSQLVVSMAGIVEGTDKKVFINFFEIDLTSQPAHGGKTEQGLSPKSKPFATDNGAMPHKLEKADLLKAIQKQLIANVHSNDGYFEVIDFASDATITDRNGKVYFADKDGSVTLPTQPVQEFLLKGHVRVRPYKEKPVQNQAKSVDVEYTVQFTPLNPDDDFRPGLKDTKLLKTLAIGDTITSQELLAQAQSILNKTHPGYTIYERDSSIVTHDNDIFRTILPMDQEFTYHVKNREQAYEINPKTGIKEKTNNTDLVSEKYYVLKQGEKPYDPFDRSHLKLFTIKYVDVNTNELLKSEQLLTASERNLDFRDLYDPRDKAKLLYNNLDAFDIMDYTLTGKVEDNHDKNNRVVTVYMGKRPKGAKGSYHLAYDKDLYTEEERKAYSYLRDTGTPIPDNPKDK

[15] = Shn3 3'UTR reporter inhibitors, dose response, cell-based, Clone20 osteoblasts, firefly luciferase, cherry-picked (AID 624132); format: functional;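 also: firefly luciferase luminescence from reporter carrying the Shn3 3'UTR in osteoblasts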
Streptococcus = assay: Group A Streptococcus viability loss, dose response, counter-screen for streptokinase expression inhibitor project, luminescence, BacTiterGlo (AID 1915); format: functional, organism-based;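 also: potency for reduction of bacterial viability or growth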
[16] = HepG2 cell cytotoxicity, dose response, cytotoxicity control for Shn3 inhibitor project, CellTiter-Glo, cherry-picked (AID 624134); format: functional, cell-based
cells [17] = format: functional, cell-based
[18] = molecular target: T5, Trace amine-associated receptor 1 (Homo sapiens, UniProt Q96RJ0); assay: Fluorescence-based cell-based high throughput dose response assay to identify agonists of the human trace amine associated receptor 1 (TAAR1).; format: functional
T5 sequence (Q96RJ0 whole entry): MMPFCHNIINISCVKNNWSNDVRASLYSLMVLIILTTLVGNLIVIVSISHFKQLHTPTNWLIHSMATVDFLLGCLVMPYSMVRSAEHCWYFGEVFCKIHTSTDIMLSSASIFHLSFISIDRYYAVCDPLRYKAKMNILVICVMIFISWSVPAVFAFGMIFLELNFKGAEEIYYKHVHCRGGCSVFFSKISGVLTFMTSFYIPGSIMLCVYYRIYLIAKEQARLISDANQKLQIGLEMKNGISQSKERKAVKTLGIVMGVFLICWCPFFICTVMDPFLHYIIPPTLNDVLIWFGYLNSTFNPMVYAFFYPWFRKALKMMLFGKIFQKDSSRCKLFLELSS

[19] = molecular target: T5, Trace amine-associated receptor 1; assay: Counterscreen for agonists of the human trace amine associated receptor 1 (hTAAR1): Fluorescence-based cell-based high throughput dose response assay to identify hTAAR1 agonist that also desensitize TAAR1 receptor response.; format: functional
cells [20] = format: functional, cell-based; remark: listed apart in the source
[21] = molecular target: T6, Sentrin-specific protease 1 (Homo sapiens, UniProt Q9P0U3); assay: potency of human SENP1 inhibitors, dose response, biochemical, kinetic FRET (AID 651697); format: functional; settings: read-out: IC50_Mean
T6 sequence (Q9P0U3 whole entry): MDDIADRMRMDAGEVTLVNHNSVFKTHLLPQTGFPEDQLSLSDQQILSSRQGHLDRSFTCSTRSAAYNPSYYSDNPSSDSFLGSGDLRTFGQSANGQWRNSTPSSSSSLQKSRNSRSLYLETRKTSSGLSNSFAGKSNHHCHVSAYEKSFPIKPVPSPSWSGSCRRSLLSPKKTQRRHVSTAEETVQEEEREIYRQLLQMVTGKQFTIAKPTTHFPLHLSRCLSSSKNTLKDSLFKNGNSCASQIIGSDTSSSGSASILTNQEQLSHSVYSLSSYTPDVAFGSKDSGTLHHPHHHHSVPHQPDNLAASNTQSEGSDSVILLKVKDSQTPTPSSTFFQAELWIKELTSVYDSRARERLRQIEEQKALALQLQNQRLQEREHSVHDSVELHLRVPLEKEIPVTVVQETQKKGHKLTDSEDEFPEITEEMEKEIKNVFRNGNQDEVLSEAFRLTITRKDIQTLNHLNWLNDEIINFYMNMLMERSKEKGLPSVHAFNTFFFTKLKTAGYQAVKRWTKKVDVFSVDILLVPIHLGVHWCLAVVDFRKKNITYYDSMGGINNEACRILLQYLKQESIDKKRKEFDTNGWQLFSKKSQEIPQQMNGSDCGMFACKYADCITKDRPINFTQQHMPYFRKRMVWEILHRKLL

[22] = molecular target: T7, Endoribonuclease toxin MazF (Escherichia coli K-12, UniProt P0AE70); assay: fluorescent RNA oligo signal without MazF, dose response, counter-screen for MazEF activator project, biochemical, fluorescence, single-stranded RNase substrate (AID 588502); format: functional
T7 sequence (P0AE70 whole entry): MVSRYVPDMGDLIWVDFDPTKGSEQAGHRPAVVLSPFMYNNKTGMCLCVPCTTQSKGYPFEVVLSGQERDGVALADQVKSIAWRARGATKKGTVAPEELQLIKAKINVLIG

[23] = molecular target: T6, Sentrin-specific protease 1; assay: Dose response confirmation of small molecule inhibitors of the catalytic domain of the SUMO protease, SENP1 in a FRET assay.; format: functional; settings: read-out: IC50_Mean
[24] = molecular target: T7, Endoribonuclease toxin MazF; assay: MazF toxin RNase activators, dose response, biochemical, fluorescence, single-stranded RNA substrate, uHTS hits (AID 588481); format: functional
Large T antigen = Large T antigen (Simian virus 40, UniProt P03070); format: functional, Betapolyomavirus macacae;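 also: Confirmatory-stage PubChem screen for compounds that inhibit SV40 T antigen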
Chain of Large T antigen (P03070 whole entry): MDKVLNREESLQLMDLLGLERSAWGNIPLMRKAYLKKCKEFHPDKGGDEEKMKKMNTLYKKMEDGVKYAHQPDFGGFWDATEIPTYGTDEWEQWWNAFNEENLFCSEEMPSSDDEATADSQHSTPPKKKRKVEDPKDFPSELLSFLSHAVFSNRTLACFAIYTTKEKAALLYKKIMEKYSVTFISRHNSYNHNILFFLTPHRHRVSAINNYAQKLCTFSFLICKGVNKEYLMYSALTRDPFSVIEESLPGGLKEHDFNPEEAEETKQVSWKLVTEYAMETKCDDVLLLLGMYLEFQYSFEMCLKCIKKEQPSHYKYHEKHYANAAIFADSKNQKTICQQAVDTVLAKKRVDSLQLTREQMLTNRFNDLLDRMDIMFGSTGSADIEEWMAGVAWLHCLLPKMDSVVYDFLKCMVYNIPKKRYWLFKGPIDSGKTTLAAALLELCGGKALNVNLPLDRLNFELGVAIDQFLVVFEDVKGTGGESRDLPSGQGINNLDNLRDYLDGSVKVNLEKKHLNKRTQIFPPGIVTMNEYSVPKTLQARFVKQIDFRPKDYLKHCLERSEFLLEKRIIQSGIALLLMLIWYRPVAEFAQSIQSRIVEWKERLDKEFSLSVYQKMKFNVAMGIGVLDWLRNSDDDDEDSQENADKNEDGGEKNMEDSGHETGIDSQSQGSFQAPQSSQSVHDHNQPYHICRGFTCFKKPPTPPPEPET

T3 sequence (P11940 whole entry): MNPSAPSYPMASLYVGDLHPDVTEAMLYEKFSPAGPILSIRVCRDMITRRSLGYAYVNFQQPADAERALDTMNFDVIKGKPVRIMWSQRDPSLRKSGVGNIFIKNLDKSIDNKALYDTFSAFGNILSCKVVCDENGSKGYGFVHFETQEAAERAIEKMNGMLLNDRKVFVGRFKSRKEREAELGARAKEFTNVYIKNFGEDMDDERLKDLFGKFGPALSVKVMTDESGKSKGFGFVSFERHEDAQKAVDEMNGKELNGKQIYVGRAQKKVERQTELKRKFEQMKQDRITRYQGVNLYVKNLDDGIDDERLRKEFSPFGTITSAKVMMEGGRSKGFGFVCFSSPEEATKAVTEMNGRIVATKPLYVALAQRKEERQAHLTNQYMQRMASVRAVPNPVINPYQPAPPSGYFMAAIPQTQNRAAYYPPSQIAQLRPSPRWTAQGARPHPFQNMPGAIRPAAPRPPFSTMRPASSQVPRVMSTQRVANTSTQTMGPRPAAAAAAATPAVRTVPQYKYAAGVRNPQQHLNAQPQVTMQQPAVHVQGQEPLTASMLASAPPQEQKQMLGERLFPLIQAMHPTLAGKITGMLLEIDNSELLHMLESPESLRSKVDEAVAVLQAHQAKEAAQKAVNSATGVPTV
Chain of Albumin (P02769 whole entry): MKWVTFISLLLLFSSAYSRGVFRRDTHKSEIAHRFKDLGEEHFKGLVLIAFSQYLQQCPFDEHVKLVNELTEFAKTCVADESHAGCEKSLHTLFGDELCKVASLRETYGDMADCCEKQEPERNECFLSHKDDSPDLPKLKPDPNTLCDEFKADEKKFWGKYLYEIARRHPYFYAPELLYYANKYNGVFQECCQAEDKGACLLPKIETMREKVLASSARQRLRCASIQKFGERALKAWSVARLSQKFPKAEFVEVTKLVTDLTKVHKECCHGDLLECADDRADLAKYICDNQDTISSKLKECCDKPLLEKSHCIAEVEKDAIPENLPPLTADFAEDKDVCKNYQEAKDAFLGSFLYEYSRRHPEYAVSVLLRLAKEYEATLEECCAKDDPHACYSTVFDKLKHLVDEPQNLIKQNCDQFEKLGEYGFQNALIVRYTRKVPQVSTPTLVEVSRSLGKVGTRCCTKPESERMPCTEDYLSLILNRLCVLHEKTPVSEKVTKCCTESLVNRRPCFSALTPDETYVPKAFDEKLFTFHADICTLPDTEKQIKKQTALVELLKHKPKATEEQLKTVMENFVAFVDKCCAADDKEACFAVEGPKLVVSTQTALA
Chain of Induced myeloid leukemia cell differentiation protein Mcl-1 (Q07820 whole entry): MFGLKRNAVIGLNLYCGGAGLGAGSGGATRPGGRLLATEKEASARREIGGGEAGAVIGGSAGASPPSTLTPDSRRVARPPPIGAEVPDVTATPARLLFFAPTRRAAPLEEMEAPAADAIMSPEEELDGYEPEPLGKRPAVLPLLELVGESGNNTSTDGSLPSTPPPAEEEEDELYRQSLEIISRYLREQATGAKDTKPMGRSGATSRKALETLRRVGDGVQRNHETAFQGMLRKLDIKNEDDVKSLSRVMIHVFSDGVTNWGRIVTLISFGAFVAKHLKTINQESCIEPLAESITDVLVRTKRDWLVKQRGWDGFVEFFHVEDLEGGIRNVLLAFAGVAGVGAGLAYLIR

CCC1=NN(C(=O)c2cccc([N+](=O)[O-])c2)C(O)(c2ccc(C)cc2)C1 (stereo unspecified)
IC50 (Albumin): > 94.1 µM (inactive)

COc1ccc(NC(=O)Cn2ncc(Cl)c(Cl)c2=O)cc1S(=O)(=O)N1CCOCC1
EC50 (HEK293 [1]): > 59.6 µM (inactive) | AC50 [2]: 10.8 µM (active) | EC50 [3]: 5.71 µM (active) | IC50 [4]: 6.5 µM (active) | EC50 (HEK293 [5]): > 59.6 µM (inactive) | EC50 (Protein RecA): 10.1 µM (active) | EC50 [6]: 7.27 µM (active) | AC50 [7]: 44.2 µM (active)

Cc1ccc(C(c2cc(Cl)c3cccnc3c2O)N2CCN(C)CC2)cc1 (stereo unspecified)
AC50 [8]: 16.4 µM (active) | AC50 [2]: > 52 µM (inactive) | EC50 [9]: 1.49 µM (active) | AC50 [10]: 1.59 µM (active) | IC50 [11]: > 66 µM (inactive) | EC50 [12]: 3.84 µM (inconclusive) | EC50 [13]: 0.374 µM (active) | IC50 [14]: > 66 µM (inactive) | EC50 (Streptokinase A): > 150 µM (not active) | AC50 [15]: 5.54 µM (active) | EC50 (Streptococcus): 15.3 µM (active) | EC50 (Protein RecA): 1.96 µM (active) | AC50 [16]: 35.2 µM (active) | AC50 [7]: > 380 µM (inactive)

CCCOC1CCCN(C(=O)c2cc(Cl)c(Cl)cc2C(=O)O)C1 (stereo unspecified)
EC50 (cells [17]): > 29.9 µM (inactive) | EC50 [18]: 8.64 µM (active) | IC50 [19]: > 29.9 µM (inactive) | IC50 (cells [20]): > 29.9 µM (inactive)

CC(C)(C)OC(=O)N/N=C/c1ccc(N2CCOCC2)s1
IC50 [21]: 8.28 µM (active) | EC50 [22]: 46.9 µM (inactive) | IC50 [23]: 11.9 µM (active) | EC50 [24]: > 99 µM (inactive) | IC50 (Large T antigen): 13.2 µM (active)

C/C(=N\CCc1ccccc1)C1=C(O)CCC1=O
EC50 (cells [17]): > 29.9 µM (inactive) | EC50 [18]: 1.94 µM (active) | IC50 [19]: 8.63 µM (active) | IC50 (cells [20]): > 29.9 µM (inactive)

— ChEMBL document CHEMBL1201862, “PubChem BioAssay data set” (2004)
